Several values for one entry are separate records, joined by “and”; a condition that tells them apart may be missing. Equal values may be shown once.
How the values were obtained:
AP-1 response element = AP-1 response element Firefly luciferase high-throughput screen in 293/AP-1-luc cells; format: cell-based, human; settings: 11-point titration curves; TPA-induced 293/AP-1-luc cells
From the text: High-throughput screen of compound library. Hits were selected from the ˜100,000 compound Lead Discovery Library at the HTS Facility at Walter & Eliza Hall Institute of Medical Research (WEHI, Bundoora, Vic) with a commercially-available human embryonic kidney (HEK)-293 cell-based assay in 384-well microtitre plates in which Firefly luciferase was driven by multiple copies of the AP-1 response element (293/AP-1-luc cells, Panomics, Fremont, CA). Briefly, the cell-based assay involved plating 5×10^3 cells into 384-well plates in DMEM, pH 7.4 containing 10% FBS. After ˜18 h, the cells were induced with 10 ng/ml […] (TPA) (Sigma, St Louis, MO) in the absence or presence of test compound, then after ˜18 h, luciferase activity was measured using a luminometer. The hit rate of the primary screen was 2.4%. […] A substructure filter was then applied to remove pan-assay interference compounds (Baell, J. B., et al., J Med Chem 53, 2719-2740 (2010)) and using the most stringent filtering criteria 256 hits were selected for further study. After dose response testing, 24 compounds with molecular weight <400 Da were reordered from suppliers and tested in secondary assays.

HMEC-1 = test: Endothelial network formation assay on Matrigel; format: cell-based, human
Experimental: Endothelial network formation assay. HMEC-1 (4×10^4 cells/well) in MCDB131 containing 1% FBS and compound (1 or 3 μM) or curcumin (1-40 μM) and 50 ng/ml FGF-2 were added to 96-well plates coated overnight at 4° C. with 100 μl of growth factor-reduced reconstituted basement membrane matrix (Matrigel, cat. 354230, Corning, NY). Network formation was observed over subsequent hours and photographed under 4× or 10× objective using an Olympus CKX41 microscope.

VCAM-1 = test: Matrigel plug assay, VCAM-1 staining; format: in vivo; settings: C57BL/6 mice; 2.5 mg/mouse; 7 days
Experimental: Matrigel plug assay. Matrigel (500 μl) containing VEGF-A165 (100 ng/ml), heparin (10U) and BT2 or BT3 (2.5 mg/mouse) or its vehicle (saline containing 0.01% DMSO and 0.5% Tween 80) was injected subcutaneously into the left flanks of male 8 week-old C57BL/6 mice. After 7d the mice were sacrificed by CO2 asphyxiation and the plugs carefully removed. Formalin-fixed paraffin embedded sections were prepared from Matrigel plugs for immunohistological assessment. Heat-induced epitope retrieval was applied to all deparaffinized sections (4 μm Superfrost slides) in citrate buffer, pH 6 for 5 min at 110° C. Immunostaining for all groups with a given antibody was performed simultaneously and development time was identical. […]
Slides were scanned using an Aperio ScanScope XT slide scanner (Leica Biosystems, Mt Waverley, Vic Australia) and images captured using ImageScope software (Leica Biosystems). Positive intraplug staining was assessed using Image-Pro Plus software (Cybernetics, Bethesda, MD) in 5-12 randomly selected fields of view for each plug photographed under 10× (CD31), 20× (VCAM-1) and 40× (FosB) objectives and expressed as integrated optical density (IOD, the product of calibrated intensity (optical density) and area, i.e. IOD=intensity (mean)×area) (Media Cybernetics) (Liu, H., et al., Sci Rep 6, 21319 (2016)). […]

[1] = test system: plasma levels of IL-1β, IL-2, IL-6, IL-4, IL-10; test: Collagen antibody-induced arthritis, plasma cytokine levels; format: in vivo, mouse; settings: CAIA mice; 30 mg/kg
Balb/c mice = test: Toxicology, histopathology after intraperitoneal, intraarticular or gavage administration; settings: for Eye (left and right), severity grade / Heart, severity grade / Kidney (left and right): inflammation, renal pelvis, severity grade / Liver: inflammation, peritoneal, severity grade / Liver: mineralisation, subcapsular, severity grade / Lung: osseous metaplasia, severity grade / Spleen, severity grade / Kidney (left and right): inflammation, interstitial, severity grade / Liver: inflammation, parenchymal, severity grade: Mouse 1-5
Experimental: Toxicology. Female Balb/c mice (8-9 week-old) were given 3 or 30 mg/kg BT2 (DMSO vehicle) via intraperitoneal injection (Days 0 and 5 in DMSO), oral gavage (Days 0-4 in DMSO/methylcellulose) or intraarticular injection (Day 0 in DMSO). Mice were euthanized after 8-11 d. Tissues was fixed in 10% formalin, processed routinely, sectioned at 4 μm and stained with hematoxylin and eosin.

[2] = Gavage BT2 3 mg/kg (Days 0-4), 3 mg/kg
[3] = IA BT2 3 mg/kg (Day 0), 3 mg/kg
[4] = IP BT2 3 mg/kg (Days 0 and 5), 3 mg/kg
[5] = IP BT2 30 mg/kg (Days 0 and 5), 30 mg/kg

CCOC(=O)Nc1ccc2c(c1)C(=O)N(CC)c1ccccc1O2 [BT2, (10-ethyl-11-oxo-10,11-dihydro-dibenzo[b,f][1,4]oxazepin-2-yl)-carbamic acid ethyl ester]
IC50, AP-1 luciferase screen (AP-1 response element): micromolar or submicromolar range | endothelial network formation (HMEC-1; 1 μM, after 4 h): abolished network formation | endothelial network (tubule) formation on Matrigel (HMEC-1; 3 μM, 1% FBS, 50 ng/ml FGF-2, 2, 4, 6 and 24 h): inhibited network formation | potency relative to curcumin in network formation assay (HMEC-1; after 4 h): > 40 fold | VCAM-1 immunoreactivity in Matrigel plugs (VCAM-1): inhibited | plasma level of IL-1β [1]: reduced plasma levels of IL-1β, IL-2 and IL-6 to normal levels | plasma level of IL-2 [1]: reduced plasma levels of IL-1β, IL-2 and IL-6 to normal levels | plasma level of IL-4 [1]: did not change | plasma level of IL-6 [1]: reduced plasma levels of IL-1β, IL-2 and IL-6 to normal levels | plasma level of IL-10 [1]: did not change | histopathological evidence of toxicity (Balb/c mice; Balb/c mice, 3 or 30 mg/kg, intraperitoneal, intraarticular or oral gavage): no histopathological evidence of toxic damage | treated mice whose kidneys contained infrequent inflammatory foci (Balb/c mice; Balb/c mice, all BT2 groups, control one of 5): 4 of 30 | Eye (left and right), severity grade (Balb/c mice; Gavage BT2 3 mg/kg (Days 0-4)): 0 | Heart, severity grade (Balb/c mice; Gavage BT2 3 mg/kg (Days 0-4)): 0 | Kidney (left and right): inflammation, renal pelvis, severity grade (Balb/c mice; Gavage BT2 3 mg/kg (Days 0-4)): 0 | Liver: inflammation, peritoneal, severity grade (Balb/c mice; Gavage BT2 3 mg/kg (Days 0-4)): 0 | Liver: mineralisation, subcapsular, severity grade (Balb/c mice; Gavage BT2 3 mg/kg (Days 0-4)): 0 | Lung: osseous metaplasia, severity grade (Balb/c mice; Gavage BT2 3 mg/kg (Days 0-4)): 0 | Spleen, severity grade (Balb/c mice; Gavage BT2 3 mg/kg (Days 0-4)): 0 | Kidney (left and right): inflammation, interstitial, severity grade (Balb/c mice; [2]): 0 and 1 | Liver: inflammation, parenchymal, severity grade (Balb/c mice; [2]): 0 and 1 | Eye (left and right), severity grade (Balb/c mice; Gavage BT2 30 mg/kg (Days 0-4)): 0 | Heart, severity grade (Balb/c mice; Gavage BT2 30 mg/kg (Days 0-4)): 0 | Kidney (left and right): inflammation, interstitial, severity grade (Balb/c mice; Gavage BT2 30 mg/kg (Days 0-4)): 0 | Kidney (left and right): inflammation, renal pelvis, severity grade (Balb/c mice; Gavage BT2 30 mg/kg (Days 0-4)): 0 | Liver: inflammation, peritoneal, severity grade (Balb/c mice; Gavage BT2 30 mg/kg (Days 0-4)): 0 | Liver: mineralisation, subcapsular, severity grade (Balb/c mice; Gavage BT2 30 mg/kg (Days 0-4)): 0 | Lung: osseous metaplasia, severity grade (Balb/c mice; Gavage BT2 30 mg/kg (Days 0-4)): 0 | Spleen, severity grade (Balb/c mice; Gavage BT2 30 mg/kg (Days 0-4)): 0 | Liver: inflammation, parenchymal, severity grade (Balb/c mice; Gavage BT2 30 mg/kg (Days 0-4), 30 mg/kg): 1 and 0 | Eye (left and right), severity grade (Balb/c mice; IA BT2 3 mg/kg (Day 0)): 0 | Heart, severity grade (Balb/c mice; IA BT2 3 mg/kg (Day 0)): 0 | Liver: inflammation, peritoneal, severity grade (Balb/c mice; IA BT2 3 mg/kg (Day 0)): 0 | Liver: mineralisation, subcapsular, severity grade (Balb/c mice; IA BT2 3 mg/kg (Day 0)): 0 | Lung: osseous metaplasia, severity grade (Balb/c mice; IA BT2 3 mg/kg (Day 0)): 0 | Spleen, severity grade (Balb/c mice; IA BT2 3 mg/kg (Day 0)): 0 | Kidney (left and right): inflammation, interstitial, severity grade (Balb/c mice; [3]): 0 and 1 | Kidney (left and right): inflammation, renal pelvis, severity grade (Balb/c mice; [3]): 2 and 0 | Liver: inflammation, parenchymal, severity grade (Balb/c mice; [3]): 1 and 0 | Eye (left and right), severity grade (Balb/c mice; IA BT2 30 mg/kg (Day 0)): 0 | Heart, severity grade (Balb/c mice; IA BT2 30 mg/kg (Day 0)): 0 | Kidney (left and right): inflammation, interstitial, severity grade (Balb/c mice; IA BT2 30 mg/kg (Day 0)): 0 | Kidney (left and right): inflammation, renal pelvis, severity grade (Balb/c mice; IA BT2 30 mg/kg (Day 0)): 0 | Liver: inflammation, parenchymal, severity grade (Balb/c mice; IA BT2 30 mg/kg (Day 0)): 1 | Liver: inflammation, peritoneal, severity grade (Balb/c mice; IA BT2 30 mg/kg (Day 0)): 0 | Liver: mineralisation, subcapsular, severity grade (Balb/c mice; IA BT2 30 mg/kg (Day 0)): 0 | Lung: osseous metaplasia, severity grade (Balb/c mice; IA BT2 30 mg/kg (Day 0)): 0 | Spleen, severity grade (Balb/c mice; IA BT2 30 mg/kg (Day 0)): 0 | Eye (left and right), severity grade (Balb/c mice; IP BT2 3 mg/kg (Days 0 and 5)): 0 | Heart, severity grade (Balb/c mice; IP BT2 3 mg/kg (Days 0 and 5)): 0 | Kidney (left and right): inflammation, interstitial, severity grade (Balb/c mice; IP BT2 3 mg/kg (Days 0 and 5)): 0 | Kidney (left and right): inflammation, renal pelvis, severity grade (Balb/c mice; IP BT2 3 mg/kg (Days 0 and 5)): 0 | Liver: mineralisation, subcapsular, severity grade (Balb/c mice; IP BT2 3 mg/kg (Days 0 and 5)): 0 | Spleen, severity grade (Balb/c mice; IP BT2 3 mg/kg (Days 0 and 5)): 0 | Liver: inflammation, parenchymal, severity grade (Balb/c mice; [4]): 1 and 0 | Liver: inflammation, peritoneal, severity grade (Balb/c mice; [4]): 0 and 2 and 1 | Lung: osseous metaplasia, severity grade (Balb/c mice; [4]): 0 and 1 | Eye (left and right), severity grade (Balb/c mice; IP BT2 30 mg/kg (Days 0 and 5)): 0 | Heart, severity grade (Balb/c mice; IP BT2 30 mg/kg (Days 0 and 5)): 0 | Kidney (left and right): inflammation, interstitial, severity grade (Balb/c mice; IP BT2 30 mg/kg (Days 0 and 5)): 0 | Lung: osseous metaplasia, severity grade (Balb/c mice; IP BT2 30 mg/kg (Days 0 and 5)): 0 | Spleen, severity grade (Balb/c mice; IP BT2 30 mg/kg (Days 0 and 5)): 0 | Kidney (left and right): inflammation, renal pelvis, severity grade (Balb/c mice; [5]): 0 and 4 | Liver: inflammation, parenchymal, severity grade (Balb/c mice; [5]): 1 and 2 | Liver: inflammation, peritoneal, severity grade (Balb/c mice; [5]): 1 and 2 | Liver: mineralisation, subcapsular, severity grade (Balb/c mice; [5]): 0 and 1

Source: patent US20260102407A1, “TREATMENT METHODS” (priority 2020, published 2026)
